The test system of one assay is MDA-MB-435. Description: Antiproliferative activity against human MDA-MB-435 cells. The class given is functional, cell-based.
The next assay has as its system HT-29. Description: Antiproliferative activity against human HT-29 cells. In kind it is functional, cell-based.
Assay [1] has as its system Mycobacterium tuberculosis. Put plainly: Antimicrobial activity against Mycobacterium tuberculosis. The class given is functional.
Assay [2] deals with Mycolicibacterium smegmatis. Description: Antimicrobial activity against Mycobacterium smegmatis at 50 ug/ml. In kind it is functional, organism-based.
The subject of a further assay is Staphylococcus aureus. Description: Antimicrobial activity against Staphylococcus aureus at 50 ug/ml. The class given is functional, organism-based.
The subject of a further assay is Escherichia coli. Description: Antimicrobial activity against Escherichia coli at 50 ug/ml. In kind it is functional, organism-based.
The next assay deals with Candida albicans. Put plainly: Antimicrobial activity against Candida albicans at 50 ug/ml. The class given is functional, organism-based.
Assay [3] deals with Mycobacterium tuberculosis. Description: Antimicrobial activity against Mycobacterium tuberculosis at 50 ug/ml. The class given is functional, organism-based.

In brackets after ≈: the same amount, converted by molar mass. Activity calls are given as the source filed them. The calls are words filed in the database; no cut-off is given here.

`CCCCCCC[C@@H]1CC(=O)N[C@@H](C(C)C)C(=O)N[C@H]([C@@H](O)C(C)C)C(=O)N[C@@H](C)C(=O)N[C@H]([C@@H](O)C(C)C)C(=O)N[C@@H](CCC(N)=O)C(=O)N(C)[C@@H]([C@@H](C)CC)C(=O)N[C@H](CC(N)=O)C(=O)N[C@@H]([C@@H](C)O)C(=O)N2CCC[C@H]2C(=O)N[C@H](CC(C)C)C(=O)N[C@@H]([C@@H](C)O)C(=O)N1`: the IC50 (in general, the point on the concentration scale where inhibition reaches its midpoint) in the assay on MDA-MB-435 came out at 1 µM; with HT-29, 1.7 µM. In assay [1], the MIC (commonly the lowest concentration found to suppress growth) was 23.8 µg/mL (≈ 17.3 µM). Besides, the result (in assay [2]; in the assay with Staphylococcus aureus; with Escherichia coli; in the assay on Candida albicans) was inactive.
In the case of `C/C=C1/NC(=O)[C@H](CCC(N)=O)NC(=O)C[C@@H](CCCCCCC)NC(=O)CNC(=O)[C@H](CC(C)C)NC(=O)[C@@H](Cc2ccccc2)NC(=O)[C@H](C(C)C)NC(=O)[C@@H](CC(C)C)NC(=O)[C@@H](Cc2ccc(O)cc2)NC(=O)[C@H](CO)NC(=O)[C@@H]2CCCN2C1=O`, the IC50 in the assay on MDA-MB-435 is 11.7 µM; in the assay on HT-29, 11.5 µM. In addition, the outcome (in assay [3]; in assay [2]; in the assay on Staphylococcus aureus; in the assay with Escherichia coli; in the assay on Candida albicans) was inactive.

Source of the values: ChEMBL document CHEMBL3596153, “Trichormamides C and D, antiproliferative cyclic lipopeptides from the cultured freshwater cyanobacterium cf. Oscillatoria sp. UIC 10045” (Bioorg Med Chem, 2015).
